Three molecules from patent US10865196B2, “Compounds for treatment of cancer” (University of Tennessee Research Foundation, priority 2008, dated 2020) can be followed below.

Structures are written as SMILES. Read-outs that look alike come from different tables or passages of the source.

The subject of one data set is MES-SA. Kind of data set: SRB antiproliferation assay, MES-SA uterine cancer. As to conditions: Homo sapiens, 96 h, read-out: IC50 in the SRB, MES-SA. Background: The SRB assay estimates cell density from bound dye.
The next data set deals with OVCAR-8. Kind of data set: SRB antiproliferation assay, OVCAR-8 ovarian cancer. Particulars: Homo sapiens, OVCAR-8, 96 h, read-out: IC50 in the SRB, OVCAR8.
For a further data set, the system named is MES-SA/DX5 xenografts. Kind of data set: MES-SA/DX5 xenograft in nude mice. As to conditions: MES-SA/DX5 uterine (MDR) xenograft, IV 10 mg/kg 1/wk.
Data set [1] deals with PC-3. Kind of data set: SRB antiproliferation assay, PC-3 prostate cancer.
Another data set has as its system C26 xenografts. Kind of data set: C26 xenograft in nude mice. Particulars: C26 colon xenograft, IV 10 mg/kg 1/wk.
The test system of the next data set is OVCAR8 xenografts. Put plainly: OVCAR8 xenograft in nude mice. Particulars: OVCAR8 ovary xenograft, IV 10 mg/kg 1/wk.
The test system of a further data set is A549 xenografts. Put plainly: A549 xenograft in nude mice. As to conditions: A549 lung xenograft, IV 10 mg/kg 1/wk.
For data set [2], the system named is PC-3. Kind of data set: apoptosis, cytoplasmic DNA-histone complexes, PC-3. In kind it is cell-based, human. Particulars: 0.8 to 600 nmol/L, 24 h.
The next data set concerns MCF7. Put plainly: SRB antiproliferation assay, MCF7 breast cancer. As to conditions: Homo sapiens, MCF7, 96 h, read-out: IC50 in the SRB, MCF7.
For another data set, the system named is A549. Kind of data set: SRB antiproliferation assay, A549 lung cancer. As to conditions: Homo sapiens, A549, 96 h, read-out: IC50 in the SRB, A549.
In another data set the test system is PC-3/TxR tumors. Particulars: for Tumor size End: mouse, in vivo, po.
The next data set relates to MES-SA/DX5. Kind of data set: SRB antiproliferation assay, doxorubicin-resistant MES-SA/DX5. As to conditions: read-out: IC50 in the SRB, MES-SA/DX5, uterine MDR, 96 h, N = 3.
The next data set concerns C26. Put plainly: SRB antiproliferation assay, C26 colon cancer. As to conditions: C26, 96 h, read-out: IC50 in the SRB, C26.
The test system of data set [3] is confluent HUVEC monolayers. Kind of data set: endothelial monolayer permeability assay. In kind it is cell-based, human. Particulars: leakage of FITC-dextran (MW 40,000) after 1, 2 and 4 h. The text has this: Endothelial monolayer permeability assay.
The subject of data set [4] is HUVEC capillary tube formation. Kind of data set: capillary formation assay on Matrigel. The format is cell-based, human. Particulars: at toxic concentration.
Another data set has as its system HUVEC. Kind of data set: endothelial cell growth inhibition SRB, HUVEC. In kind it is cell-based, human. As to conditions: for Selectivity ratio, cancer cells/HUVEC: mean IC50 in PC3 and T47D over IC50 in HUVEC.
Another data set concerns CaCO-2. Put plainly: permeability, CaCO-2 assay. As to conditions: mean of duplicate studies. On the technique in general: Passage across Caco-2 layers is used to estimate intestinal permeability.
In a further data set the test system is PC3. Kind of data set: cell growth inhibition SRB, PC3 (vascular study). The format is cell-based. Particulars: Homo sapiens, PC-3, N = 3, Table 14. The text has this: (§1) Cell growth inhibition studies. […] Cells were stained with sulphorhodamine B (SRB) solution.
Data set [5] has as its system colchicine-binding site on tubulin. Put plainly: competitive mass binding assay, colchicine-tubulin binding. As to conditions: tubulin 1 mg/mL.
In another data set the test system is T47D. Kind of data set: cell growth inhibition SRB, T47D. Particulars: Homo sapiens, N = 3, Table 14. The format is cell-based.
Text: as §1

Data set [6] in a line: pharmacokinetic study in ICR mice. Particulars: mouse, PO 20 mg/kg vs IV 10 mg/kg.
A further data set concerns PC-3/TxR. Kind of data set: apoptosis, cytoplasmic DNA-histone complexes, PC-3/TxR. The format is cell-based, human. As to conditions: 0.8 to 600 nmol/L, 24 h.
In another data set the test system is LNCaP. Kind of data set: SRB antiproliferation assay, LNCaP prostate cancer. Particulars: read-out: Cytotoxicity IC50 mean ± SD, LNCaP; 96 h treatment, N = 3.
The nature of data set [7]: pharmacokinetic study in beagle dogs. As to conditions: dog, PO 5 mg/kg vs IV 2 mg/kg.
A further data set deals with T1, Porcine brain tubulin (Sus scrofa, UniProt P02550+P02554).
T1 construct: […]; purchased Cytoskeleton, Denver, Colo; host or cells: porcine brain
In kind it is biochemical. As to conditions: 5 μM, at 15 min.

A further data set deals with DU 145. Kind of data set: SRB antiproliferation assay, DU 145 prostate cancer. Particulars: read-out: Cytotoxicity IC50 mean ± SD, Du-145; 96 h treatment, N = 3.
A further data set has as its system PPC-1. Kind of data set: SRB antiproliferation assay, PPC-1 prostate cancer. As to conditions: read-out: Cytotoxicity IC50 mean ± SD, PPC-1; 96 h treatment, N = 3.
Data set [8] is described as follows: pharmacokinetic study in Sprague-Dawley rats. As to conditions: rat.
Data set [9] deals with prostate cancer cells (LNCaP, PC-3, DU-145, PPC-1). Put plainly: SRB assay, prostate cancer cells. In kind it is cell-based, human. Particulars: Homo sapiens, range over prostate cancer cell lines; read-out: IC50 values against prostate cancer cells.

For orientation: TGI means how far tumour growth fell short of that in controls. A higher TGI goes with a stronger effect on the tumour. Broadly, the AUC is concentration integrated over time. Lower therefore signals less exposure. In general, Vss refers to a proportionality between amount in the body and measured concentration, not a real space. Read a high Vss as wide distribution into tissue.

As for `CC(=O)O[C@@]12CO[C@@H]1C[C@H](O)[C@@]1(C)C(=O)[C@H](O)C3=C(C)[C@@H](OC(=O)[C@H](O)[C@@H](NC(=O)OC(C)(C)C)c4ccccc4)C[C@@](O)([C@@H](OC(=O)c4ccccc4)[C@H]21)C3(C)C` [Docetaxel, reference compound], the IC50 with MES-SA was 0.1 nM; with OVCAR-8, 0.4 nM; in the data set on PC-3 [1] (read-out: Cytotoxicity IC50 mean ± SD, PC-3, 96 h treatment, N = 3), 1.2 ± 0.1 nM; with PC-3 [1] (read-out: IC50 in the SRB, PC3, 96 h treatment, N = 3, Table 15), 1 to 5 nM; in the data set with MCF7, 0.1 nM; with A549 it was 0.2 nM. Moreover, the IC50 was 26 nM in the data set with MES-SA/DX5, 426 nM with MES-SA/DX5 (listed as DTX) and 4 nM with C26. Besides, the TGI is reported as 47% in the data set on MES-SA/DX5 xenografts; 35% in the data set on C26 xenografts; 22% in the data set on OVCAR8 xenografts; 44% with A549 xenografts; 14% in the data set with PC-3/TxR tumors (PC3/TXR prostate (MDR) xenograft, IV 10 mg/kg 1/wk); 14% in the data set on PC-3/TxR tumors (PC-3/TxR xenograft, IV 10 mpk day 1 and 9, day 19). The molecule also came in with a TGI with PC-3/TxR tumors (PC-3/TxR xenograft, IV 20 mpk day 1 and 9, day 19) of 56%. Further, the “induction of cell apoptosis in PC-3” value in the data set with PC-3 [2] is “highly potent”.
For `COc1cccc2c1C(=O)c1c(O)c3c(c(O)c1C2=O)C[C@@](O)(C(=O)CO)C[C@@H]3O[C@H]1C[C@H](N)[C@H](O)[C@H](C)O1` [Doxorubicin], the “permeability of endothelial cell monolayer” value in data set [3] was “did not induce any change”. Further, in data set [4], the capillary construction result is reported as “did not affect”. Besides, the entries for the “Selectivity ratio, cancer cells/HUVEC” value with HUVEC and in the data set on HUVEC (listed as doxorubicin) were 1.4 and “not specific to endothelial cells”, respectively.
In the case of `COc1cc(C(=O)c2csc(Nc3ccc4[nH]ccc4c3)n2)cc(OC)c1OC` [compound 55, (2-(1H-indol-5-ylamino)thiazol-4-yl)(3,4,5-trimethoxyphenyl)methanone], the “permeability of endothelial cell monolayer” value in data set [3] is “increased permeability”. Besides, the “Permeability Papp(A→B) in CaCO-2 assay” value with CaCO-2 was 99 10^−6 cm/s. In addition, the IC50 in the data set with PC3 was found to be 23.3 nM; in the data set with PC-3 [1] (human, PC-3 cells, 96 h), 16.5 ± 1.5 nM; in the data set on T47D, 37.4 nM; with LNCaP it was 27 ± 0.6 nM; with DU 145 it was 38 ± 0.6 nM; in the data set with HUVEC (Homo sapiens, HUVEC, SRB, N = 3, growth factor-supplemented endothelial cells), 9.7 nM. In addition, the IC50 in the data set on PPC-1 is 36 ± 0.4 nM; in data set [9], 7.5 to 24.1 nM. Besides, the “competition with colchicine for tubulin binding” value in data set [5] is recorded as “competed effectively with colchicine for tubulin binding”. In addition, the F in data set [6] is on record as 34%; in data set [7], 36%; in data set [8] (PO 10 mg/kg vs IV 5 mg/kg), 24%. The “induction of cell apoptosis in PC-3/TxR” value in the data set on PC-3/TxR is “equally potent”. Moreover, on Porcine brain tubulin, the “inhibition of tubulin polymerization” value came out at 40%. Also, the “induction of cell apoptosis in PC-3” value in the data set with PC-3 [2] is given as “equally potent”. Also, the “Body weight End” value turned out to be 26 ± 3 g in the data set on PC-3/TxR tumors (PC-3/TxR xenograft, PO 10 mpk b.i.d × 5/w, day 26, start 29 ± 2) and 30 ± 2 g in the data set with PC-3/TxR tumors (PC-3/TxR xenograft, PO 30 mpk b.i.d × 5/w, day 26, start 29 ± 3). Also, in the data set with PC-3/TxR tumors (PC-3/TxR xenograft, PO 30 mpk b.i.d × 5/w, day 26, 30 mg/kg), the TGI is listed as greater than 100%. The “Tumor size End” value in the data set on PC-3/TxR tumors (10 mg/kg) turned out to be 1152 ± 433 mm^3; in the data set on PC-3/TxR tumors (30 mg/kg), 101 ± 19 mm^3. Moreover, the values for the AUC in data set [8] (IV 5 mg/kg) and in data set [8] (PO 10 mg/kg) were 509 ± 73 µg·min/mL and 246 ± 163 µg·min/mL, respectively. Besides, the Vss in data set [8] (IV 5 mg/kg) is given as 1.0 ± 0.1 L/kg.
